One may read the IC50 as the concentration that gives 50% inhibition.

SMILES strings stand for the structures.

IC50 data for 18 molecules are collected here from patent US8614201B2 (Janssen Pharmaceutica NV, priority 2009, dated 2013).

In this assay the target is Human TRPA1 (Homo sapiens, UniProt O75762). Put plainly: Assay 1: In vitro cellular testing of TRPA1 modulation (CHO-TREx, Fluo-3 calcium fluorescence, AITC agonist). Conditions: CHO-TREx cells expressing human TRPA1; Fluo-3 fluorescence (FLIPR/Tetra); agonist 15 μM allyl isothiocyanate (AITC); 30 minute antagonist incubation. It is filed as cell-based. Further details: expressed in transfected cells; host or cells: CHO-TREx cells (Invitrogen), vector pcDNA4/TO. The method, boiled down: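 Antagonist potency is the 50% reduction of the AITC (15 μM) calcium response, Hill-fitted against no-antagonist and 10 μM ruthenium red controls. Fluo-3-loaded (4 μM) CHO-TREx cells with tetracycline-inducible human TRPA1 got compound in HEPES saline pH 7.4 for 30 min, usually from 10 μM in three-fold dilutions.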
Sequence of Human TRPA1 (O75762 whole entry): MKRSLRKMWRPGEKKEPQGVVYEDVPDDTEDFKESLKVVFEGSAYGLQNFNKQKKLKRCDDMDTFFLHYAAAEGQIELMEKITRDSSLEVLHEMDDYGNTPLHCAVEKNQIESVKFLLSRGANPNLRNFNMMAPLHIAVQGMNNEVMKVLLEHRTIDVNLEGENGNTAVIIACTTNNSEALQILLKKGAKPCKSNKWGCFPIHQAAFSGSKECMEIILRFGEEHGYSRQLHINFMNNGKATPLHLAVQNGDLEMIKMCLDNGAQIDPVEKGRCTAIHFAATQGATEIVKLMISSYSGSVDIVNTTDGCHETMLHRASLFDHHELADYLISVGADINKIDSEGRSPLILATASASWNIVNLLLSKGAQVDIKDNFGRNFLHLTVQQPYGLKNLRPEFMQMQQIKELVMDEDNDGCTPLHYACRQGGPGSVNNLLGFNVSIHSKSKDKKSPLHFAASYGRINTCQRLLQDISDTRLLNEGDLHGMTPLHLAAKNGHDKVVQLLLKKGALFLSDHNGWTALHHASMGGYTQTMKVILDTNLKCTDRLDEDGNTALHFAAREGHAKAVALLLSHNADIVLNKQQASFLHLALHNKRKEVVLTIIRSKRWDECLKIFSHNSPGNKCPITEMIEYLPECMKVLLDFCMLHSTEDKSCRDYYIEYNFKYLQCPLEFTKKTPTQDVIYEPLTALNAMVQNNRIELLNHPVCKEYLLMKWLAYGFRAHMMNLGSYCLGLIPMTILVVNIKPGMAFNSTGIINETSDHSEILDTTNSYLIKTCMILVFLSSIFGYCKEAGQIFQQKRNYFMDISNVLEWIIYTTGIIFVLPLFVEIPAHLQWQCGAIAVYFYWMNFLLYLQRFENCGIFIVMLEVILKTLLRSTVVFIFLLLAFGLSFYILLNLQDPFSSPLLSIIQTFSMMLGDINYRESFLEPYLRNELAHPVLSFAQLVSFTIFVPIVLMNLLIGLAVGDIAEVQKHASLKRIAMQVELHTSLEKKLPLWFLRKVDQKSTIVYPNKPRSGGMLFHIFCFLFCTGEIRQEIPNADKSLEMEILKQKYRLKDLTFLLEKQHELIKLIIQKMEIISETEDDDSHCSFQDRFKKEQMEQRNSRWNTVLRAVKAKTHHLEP

On to `CNc1cc(CNC(=O)[C@@H]2CC(F)(F)CN2S(=O)(=O)c2ccc(Cl)s2)cc(-c2ccc(C(F)(F)F)cc2)n1` [Example 384, 1-[(5-Chlorothiophen-2-yl)sulfonyl]-4,4-difluoro-N-({2-(methylamino)-6-[4-(trifluoromethyl)phenyl]pyridin-4-yl}methyl)-L-prolinamide], for which the IC50 turned out to be 2220 nM.

As for `O=C(NCc1cc(NCc2ccncc2)nc(-c2ccc(C(F)(F)F)cc2)c1)[C@@H]1CCCN1S(=O)(=O)c1ccc(F)cc1` [Example 385, 1-[(4-Fluorophenyl)sulfonyl]-N-({2-[(pyridin-4-ylmethyl)amino]-6-[4-(trifluoromethyl)phenyl]pyridin-4-yl}methyl)-L-prolinamide], the IC50 was determined as 978 nM.

In the case of `CC(C)CN1CCN(c2cc(CNC(=O)[C@@H]3CC(F)(F)CN3S(=O)(=O)c3ccc(F)cc3)cc(-c3ccc(C(F)(F)F)cc3)n2)CC1` [Example 386, 4,4-Difluoro-1-[(4-fluorophenyl)sulfonyl]-N-({2-[4-(2-methylpropyl)piperazin-1-yl]-6-[4-(trifluoromethyl)phenyl]pyridin-4-yl}methyl)-L-prolinamide], the concentration for half-maximal inhibition (IC50) is 311 nM.

As for `O=C(NCc1cc(-c2ccc(C(F)(F)F)cc2)nc(N2CCN(Cc3ccccn3)CC2)c1)[C@@H]1CC(F)(F)CN1S(=O)(=O)c1ccc(F)cc1` [Example 387, 4,4-Difluoro-1-[(4-fluorophenyl)sulfonyl]-N-({2-[4-(pyridin-2-ylmethyl)piperazin-1-yl]-6-[4-(trifluoromethyl)phenyl]pyridin-4-yl}methyl)-L-prolinamide], the IC50 amounted to 3050 nM.

For `O=C(NCc1cc(-c2ccc(C(F)(F)F)cc2)nc(N2CCN(Cc3ccccc3)CC2)c1)[C@@H]1CC(F)(F)CN1S(=O)(=O)c1ccc(F)cc1` [Example 388, N-({2-(4-Benzylpiperazin-1-yl)-6-[4-(trifluoromethyl)phenyl]pyridin-4-yl}methyl)-4,4-difluoro-1-[(4-fluorophenyl)sulfonyl]-L-prolinamide], the IC50 turned out to be 3520 nM.

As to `CC(C)CN1CCN(c2cc(CNC(=O)[C@@H]3C=CCN3S(=O)(=O)c3ccc(Cl)s3)cc(-c3ccc(C(F)(F)F)cc3)n2)CC1` [Example 389, (2S)-1-[(5-Chlorothiophen-2-yl)sulfonyl]-N-({2-[4-(2-methylpropyl)piperazin-1-yl]-6-[4-(trifluoromethyl)phenyl]pyridin-4-yl}methyl)-2,5-dihydro-1H-pyrrole-2-carboxamide], the IC50 worked out at 95 nM.

Regarding `CC(C)CN1CCN(c2cc(CNC(=O)[C@@H]3C=CCN3S(=O)(=O)c3ccc(F)cc3)cc(-c3ccc(C(F)(F)F)cc3)n2)CC1` [Example 390, (2S)-1-[(4-Fluorophenyl)sulfonyl]-N-({2-[4-(2-methylpropyl)piperazin-1-yl]-6-[4-(trifluoromethyl)phenyl]pyridin-4-yl}methyl)-2,5-dihydro-1H-pyrrole-2-carboxamide], the IC50 was 382 nM.

Consider `O=C(NCc1cc(NCc2ccncc2)nc(-c2ccc(C(F)(F)F)cc2)c1)[C@@H]1C=CCN1S(=O)(=O)c1ccc(Cl)s1` [Example 391, (2S)-1-[(5-Chlorothiophen-2-yl)sulfonyl]-N-({2-[(pyridin-4-ylmethyl)amino]-6-[4-(trifluoromethyl)phenyl]pyridin-4-yl}methyl)-2,5-dihydro-1H-pyrrole-2-carboxamide], for which the IC50 is 797 nM.

As for `O=C(NCc1cc(NCc2ccccn2)nc(-c2ccc(C(F)(F)F)cc2)c1)[C@@H]1CCCN1S(=O)(=O)c1ccc(F)cc1` [Example 392, 1-[(4-Fluorophenyl)sulfonyl]-N-({2-[(pyridin-2-ylmethyl)amino]-6-[4-(trifluoromethyl)phenyl]pyridin-4-yl}methyl)-L-prolinamide], the IC50 is 414 nM.

For `CN(C)c1cc(CNC(=O)[C@@H]2CC(F)(F)CN2S(=O)(=O)c2ccc(F)cc2)cc(-c2ccc(C(F)(F)F)cc2)n1` [Example 393, N-({2-(Dimethylamino)-6-[4-(trifluoromethyl)phenyl]pyridin-4-yl}methyl)-4,4-difluoro-1-[(4-fluorophenyl)sulfonyl]-L-prolinamide], the IC50 worked out at 461 nM.

Consider `O=C(NCc1cc(NCc2ccccc2)nc(-c2ccc(C(F)(F)F)cc2)c1)[C@@H]1CC(F)(F)CN1S(=O)(=O)c1ccc(F)cc1` [Example 394, N-({2-(Benzylamino)-6-[4-(trifluoromethyl)phenyl]pyridin-4-yl}methyl)-4,4-difluoro-1-[(4-fluorophenyl)sulfonyl]-L-prolinamide], for which the IC50 is 598 nM.

Turning to `O=C(NCc1cc(NCc2cccnc2)nc(-c2ccc(C(F)(F)F)cc2)c1)[C@@H]1CCCN1S(=O)(=O)c1ccc(F)cc1` [Example 395, 1-[(4-Fluorophenyl)sulfonyl]-N-({2-[(pyridin-3-ylmethyl)amino]-6-[4-(trifluoromethyl)phenyl]pyridin-4-yl}methyl)-L-prolinamide], the IC50 amounted to 2980 nM.

Regarding `CC1CCCN1c1cc(CNC(=O)[C@@H]2CC(F)(F)CN2S(=O)(=O)c2ccc(F)cc2)cc(-c2ccc(C(F)(F)F)cc2)n1` (stereo partly drawn) [Example 396, 4,4-Difluoro-1-[(4-fluorophenyl)sulfonyl]-N-({2-(2-methylpyrrolidin-1-yl)-6-[4-(trifluoromethyl)phenyl]pyridin-4-yl}methyl)-L-prolinamide], the IC50 was determined as 1790 nM.

Regarding `CC1CCCN1c1cc(CNC(=O)[C@@H]2CC(F)(F)CN2S(=O)(=O)c2ccc(Cl)s2)cc(-c2ccc(C(F)(F)F)cc2)n1` (stereo partly drawn) [Example 397, 1-[(5-Chlorothiophen-2-yl)sulfonyl]-4,4-difluoro-N-({2-(2-methylpyrrolidin-1-yl)-6-[4-(trifluoromethyl)phenyl]pyridin-4-yl}methyl)-L-prolinamide], the IC50 is 2950 nM.

On to `CC(Nc1cc(CNC(=O)[C@@H]2CC(F)(F)CN2S(=O)(=O)c2ccc(F)cc2)cc(-c2ccc(C(F)(F)F)cc2)n1)c1cccnc1` (stereo partly drawn) [Example 398, 4,4-Difluoro-1-[(4-fluorophenyl)sulfonyl]-N-({2-[(1-pyridin-3-ylethyl)amino]-6-[4-(trifluoromethyl)phenyl]pyridin-4-yl}methyl)-L-prolinamide], for which the IC50 turned out to be 7090 nM.

For the molecule `CC(Nc1cc(CNC(=O)[C@@H]2CC(F)(F)CN2S(=O)(=O)c2ccc(Cl)s2)cc(-c2ccc(C(F)(F)F)cc2)n1)c1cccnc1` (stereo partly drawn) [Example 399, 1-[(5-Chlorothiophen-2-yl)sulfonyl]-4,4-difluoro-N-({2-[(1-pyridin-3-ylethyl)amino]-6-[4-(trifluoromethyl)phenyl]pyridin-4-yl}methyl)-L-prolinamide], the IC50 turned out to be 2610 nM.

As for `CC(Nc1cc(CNC(=O)[C@@H]2CC(F)(F)CN2S(=O)(=O)c2ccc(Cl)s2)cc(-c2ccc(C(F)(F)F)cc2)n1)c1ccncc1` (stereo partly drawn) [Example 400, 1-[(5-Chlorothiophen-2-yl)sulfonyl]-4,4-difluoro-N-({2-[(1-pyridin-4-ylethyl)amino]-6-[4-(trifluoromethyl)phenyl]pyridin-4-yl}methyl)-L-prolinamide], the IC50 was determined as 1830 nM.

As for `CC(Nc1cc(CNC(=O)[C@@H]2CC(F)(F)CN2S(=O)(=O)c2ccc(F)cc2)cc(-c2ccc(C(F)(F)F)cc2)n1)c1ccncc1` (stereo partly drawn) [Example 401, 4,4-Difluoro-1-[(4-fluorophenyl)sulfonyl]-N-({2-[(1-pyridin-4-ylethyl)amino]-6-[4-(trifluoromethyl)phenyl]pyridin-4-yl}methyl)-L-prolinamide], the IC50 was determined as 2520 nM.
